# According to PMC9758846, “Dinuclear and mononuclear metal(II) polypyridyl complexes against drug-sensitive and drug-resistant Plasmodium falciparum and their mode of action” (Malaria Journal, 2022):
# Where a name gives a salt, the structure may show the parent alone. Read-outs that look alike come from different tables or passages of the source.
# Key:
# [1] = PNDA assay of •OH radicals from reaction with H2O2; conditions: equimolar test compound with excess H2O2
# Experimental: A previously reported spectrometric assay using PNDA was used to quantify the amount of reactive oxygen species (ROS), viz. •OH radicals, produced by the reaction of metal(II) complexes with hydrogen peroxide in borate buffer at pH 7.5 [24–26]. The percentage of PNDA bleaching and the concentration of •OH produced were determined.
# [2] = tested on: Plasmodium falciparum 3D7 (Pf3D7); assay: In vitro anti-malarial activity using SYBR Green I nucleic acid dye; assay type: cell-based; conditions: Plasmodium falciparum, read-out: IC50 of Pf3D7
# Experimental: (§1) The drug-sensitive strain of P. falciparum 3D7 (Pf3D7) was obtained from the Department of Science, Monash University, Malaysia and cultured as previously described. The artemisinin-resistant strain of P. falciparum IPC5202 (Pf5202) was obtained from BEI Resources and cultured as mentioned in the product sheet. Both strains were maintained in sealed flask at 37 °C in a humidified atmosphere of 5% O2, 5% CO2 and 90% N2. All buffer stock solutions for biological assays were autoclaved at 121 °C for 15 min.
# (§2) Previously reported anti-malarial assay was used with slight modification using 1% parasitaemia (ring-stage) and 5% haematocrit treated with test compounds at increasing concentration and incubated for 72 h at 37 °C [21–23]. After the incubation, the assay was terminated by freeze/thaw cycle (− 80 °C overnight before thawing for 2 h) before the addition of lysis buffer containing SYBR Green I dye into each well and mixed thoroughly using the belly dancer for 30 min in the dark. Chloroquine diphosphate salt and artemisinin were used as standard drugs. The fluorescence signal was quantified at 485 nm excitation wavelength and 528 nm emission wavelength. IC50 values of each test compound was determined from a dose response curve by non-linear regression analysis.
# [3] = tested on: Plasmodium falciparum IPC5202 (Pf5202); assay: as above; assay type: cell-based; conditions: for IC50: Plasmodium falciparum, read-out: IC50 of Pf5202; for Drop in efficacy/potency towards Pf5202 relative to Pf3D7: ratio of IC50 values
# Experimental: as §1, §2
# Pf3D7 = assay: Intracellular ROS level using DCFH-DA; assay type: cell-based, Plasmodium falciparum; conditions: positive control
# Experimental: (§3) After incubation, packed cells were washed with phosphate buffer saline (PBS) solution. […] The data was expressed as fold change between amount of ROS produced by treated P. falciparum against untreated P. falciparum. Normalization was done with the percentage of parasite viability obtained at each condition. Hydrogen peroxide was used as positive control.
# Pf5202 = assay: Intracellular ROS level using DCFH-DA; assay type: cell-based, Plasmodium falciparum; conditions: positive control
# Experimental: as §3
structure (smiles),measurement,setting,value
"c1cc(-c2ccncc2)ccn1 [4,4′-bipy, 4,4′-bipyridine]",Generation of ·OH radicals (in words),[1],did not generate any ·OH radicals
same,IC50,"[2]; 3D7, 72 h incubation",> 100000 nM
same,IC50,[3]; 72 h incubation,> 100 µM
"C[C@@H]1CC[C@H]2[C@@H](C)C(=O)O[C@@H]3O[C@@]4(C)CC[C@@H]1[C@]32OO4 [ART, Artemisinin]",IC50,"[2]; 3D7, 72 h incubation",40 ± 10 nM
same,IC50,[3]; 72 h incubation,> 100 µM
same,Drop in efficacy/potency towards Pf5202 relative to Pf3D7,[3],more than 3000 ×
"CCN(CC)CCCC(C)Nc1ccnc2cc(Cl)ccc12 (stereo not drawn) [CQ, Chloroquine diphosphate salt]",IC50,"[2]; 3D7, 72 h",30 ± 10 nM
same,IC50,[3]; 72 h,> 100 µM
same,Drop in efficacy/potency towards Pf5202 relative to Pf3D7,[3],more than 3000 ×
"OO [Complex H2O2, Hydrogen peroxide, reference compound]",fold change in ROS,"Pf3D7; 24 h, 8 µM",0.90 ± 0.37 fold
same,fold change in ROS,"Pf3D7; 24 h, 40 µM",1.34 ± 0.67 fold
same,fold change in ROS,"Pf3D7; 24 h, 200 µM",1.28 ± 0.62 fold
same,fold change in ROS,"Pf3D7; 24 h, 1000 µM",1.77 ± 0.85 fold
same,fold change in ROS,"Pf3D7; 48 h, 8 µM",2.97 ± 0.57 fold
same,fold change in ROS,"Pf3D7; 48 h, 40 µM",3.55 ± 0.9 fold
same,fold change in ROS,"Pf3D7; 48 h, 200 µM",4.61 ± 0.15 fold
same,fold change in ROS,"Pf3D7; 48 h, 1000 µM",5.75 ± 0.76 fold
same,fold change in ROS,"Pf3D7; 72 h, 8 µM",0.25 ± 0.08 fold
same,fold change in ROS,"Pf3D7; 72 h, 40 µM",0.34 ± 0.12 fold
same,fold change in ROS,"Pf3D7; 72 h, 200 µM",0.49 ± 0.22 fold
same,fold change in ROS,"Pf3D7; 72 h, 1000 µM",1.00 ± 0.06 fold
same,fold change in ROS,"Pf5202; 24 h, 8 µM",1.10 ± 0.04 fold
same,fold change in ROS,"Pf5202; 24 h, 40 µM",1.16 ± 0.13 fold
same,fold change in ROS,"Pf5202; 24 h, 200 µM",1.08 ± 0.18 fold
same,fold change in ROS,"Pf5202; 24 h, 1000 µM",1.15 ± 0.22 fold
same,fold change in ROS,"Pf5202; 48 h, 8 µM",1.78 ± 0.16 fold
same,fold change in ROS,"Pf5202; 48 h, 40 µM",1.54 ± 0.28 fold
same,fold change in ROS,"Pf5202; 48 h, 200 µM",1.41 ± 0.16 fold
same,fold change in ROS,"Pf5202; 48 h, 1000 µM",1.68 ± 0.28 fold
same,fold change in ROS,"Pf5202; 72 h, 8 µM",1.82 ± 0.15 fold
same,fold change in ROS,"Pf5202; 72 h, 40 µM",1.17 ± 0.36 fold
same,fold change in ROS,"Pf5202; 72 h, 200 µM",2.06 ± 0.25 fold
same,fold change in ROS,"Pf5202; 72 h, 1000 µM",3.71 ± 0.14 fold
